Columns and labels:
[1] = At a dose 50 mg/kg (114 umol/kg) was administered intraperitoneally to mice and was evaluated for MRT; format: ADME, organism-based; design: dose 50 mg/kg, route intraperitoneal; conditions: mouse, in vivo, ip
A2780 [2] = assay: […] antitumor activity against A2780 human ovarian carcinoma at 7.5 mg/kg i.p. /qd x7; format: functional; conditions: route intraperitoneal
Mus musculus = assay: At a dose 50 mg/kg (114 umol/kg) was administered intraperitoneally to mice and was evaluated for area under curve (AUCtot); format: ADME, organism-based; design: time AUCmax, dose 50 mg/kg, route intraperitoneal; conditions: in vivo, ip
[3] = At a dose 50 mg/kg (114 umol/kg) was administered intraperitoneally to mice and was evaluated for T max; format: ADME, organism-based; design: dose 50 mg/kg, route intraperitoneal; conditions: mouse, in vivo, ip
[4] = At a dose 50 mg/kg (114 umol/kg) was administered intraperitoneally to mice and was evaluated for half life (T1/2); format: ADME, organism-based; design: dose 50 mg/kg, route intraperitoneal; conditions: mouse, in vivo, ip
[5] = At a dose 50 mg/kg (114 umol/kg) was administered intraperitoneally to mice and was evaluated for Cmax; format: ADME, organism-based; design: dose 50 mg/kg, route intraperitoneal; conditions: mouse, in vivo, ip
[6] = molecular target: Cyclin-dependent kinase 2 (Homo sapiens) (UniProt P24941); assay: Percentage A2780 cells in G1 after 24 hr r at 5 nM (IC50); format: functional, cell-based
[7] = molecular target: Cyclin-dependent kinase 2 (Homo sapiens) (UniProt P24941); assay: Percentage A2780 cells in G2/M after 24 hr r at 5 nM (IC50); format: functional, cell-based
[8] = molecular target: Cyclin-dependent kinase 2 (Homo sapiens) (UniProt P24941); assay: Percentage A2780 cells in S-phase after 24 hr r at 5 nM (IC50); format: functional, cell-based
[9] = molecular target: Cyclin-dependent kinase 2 (Homo sapiens) (UniProt P24941); assay: Percentage A2780 cells in sub-G1 after 24 hr r at 5 nM (IC50); format: functional, cell-based
[10] = molecular target: Cyclin-dependent kinase 2 (Homo sapiens) (UniProt P24941); assay: Percentage A2780 cells in G1 after 24 hr r at 29 nM (IC90); format: functional, cell-based
[11] = molecular target: Cyclin-dependent kinase 2 (Homo sapiens) (UniProt P24941); assay: Percentage A2780 cells in G2/M after 24 hr r at 29 nM (IC90); format: functional, cell-based
[12] = molecular target: Cyclin-dependent kinase 2 (Homo sapiens) (UniProt P24941); assay: Percentage A2780 cells in S-phase after 24 hr r at 29 nM (IC90); format: functional, cell-based
[13] = molecular target: Cyclin-dependent kinase 2 (Homo sapiens) (UniProt P24941); assay: Apoptotic A2780 cells after 24 hr r at 29 nM (IC90); format: functional, cell-based
[14] = molecular target: Cyclin-dependent kinase 2 (Homo sapiens) (UniProt P24941); assay: Apoptotic A2780 cells after 24 hr r at 5 nM (IC50); format: functional, cell-based
[15] = molecular target: Cyclin-dependent kinase 1/cyclin B (Homo sapiens, UniProt P06493); assay: Inhibitory activity against baculovirus expressed Cyclin dependent kinase 1-cyclinB; format: protein-complex assay
[16] = molecular target: Cyclin-dependent kinase 2/cyclin E (Homo sapiens, UniProt P24941); assay: Inhibitory activity against baculovirus expressed Cyclin dependent kinase 2-cyclinE; format: protein-complex assay
[17] = molecular target: Cyclin-dependent kinase 4/cyclin D1 (Homo sapiens, UniProt P11802); assay: Inhibitory activity against baculovirus expressed Cyclin dependent kinase 4-cyclinD1; format: protein-complex assay
HS27 = assay: Inhibition of Hs 27 human fibroblast cell proliferation; format: functional, cell-based
Homo sapiens = species on record: Homo sapiens; assay: Percent of serum binding in human; format: functional
MLF = assay: Inhibition of MLF mouse lung fibroblast cell proliferation; format: functional, cell-based
P388 = assay: […] antitumor activity against P388 murine leukemia at 7.5 mg/kg i.p. /qd x7 and %T/C; format: functional, Mus musculus; conditions: route intraperitoneal
M109 = assay: Inhibition of M109 mouse lung carcinoma cell proliferation; format: functional, cell-based
A2780 [18] = assay: cells; conditions: Homo sapiens
Description: Cytotoxic activity against A2780 human ovarian carcinoma cell line

[19] = molecular target: Cyclin-dependent kinase 2 (Homo sapiens) (UniProt P24941); assay: Percentage A2780 cells in sub-G1 after 24 hr r at 29 nM (IC90)
Protein kinase C (PKC) = assay: Inhibition of Protein kinase C; format: protein assay
[20] = molecular target: cAMP-dependent protein kinase (PKA) (Homo sapiens, UniProt P22694+P17612+P22612); assay: Inhibition of Protein kinase A (PKA); format: protein assay

Chain of Cyclin-dependent kinase 4/cyclin D1 (P11802 whole entry): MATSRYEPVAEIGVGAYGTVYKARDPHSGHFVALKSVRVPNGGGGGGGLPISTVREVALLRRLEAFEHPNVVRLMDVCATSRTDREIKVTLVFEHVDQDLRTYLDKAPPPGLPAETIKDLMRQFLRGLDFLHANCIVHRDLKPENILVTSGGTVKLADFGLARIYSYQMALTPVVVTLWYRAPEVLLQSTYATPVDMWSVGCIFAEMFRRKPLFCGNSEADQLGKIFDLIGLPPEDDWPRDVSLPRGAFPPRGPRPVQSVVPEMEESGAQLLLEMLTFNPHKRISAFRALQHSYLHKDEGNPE
Chain of Cyclin-dependent kinase 4/cyclin D1 (P24385 whole entry, further chain): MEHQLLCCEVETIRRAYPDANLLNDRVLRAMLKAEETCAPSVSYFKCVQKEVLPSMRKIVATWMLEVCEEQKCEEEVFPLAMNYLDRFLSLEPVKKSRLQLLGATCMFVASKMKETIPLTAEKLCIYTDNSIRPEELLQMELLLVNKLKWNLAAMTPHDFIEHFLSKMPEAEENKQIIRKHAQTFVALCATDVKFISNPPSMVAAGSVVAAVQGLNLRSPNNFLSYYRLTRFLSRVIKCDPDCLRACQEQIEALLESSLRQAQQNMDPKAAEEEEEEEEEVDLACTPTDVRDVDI

CCc1cnc(CSc2cnc(NC(=O)Cc3cccnc3)s2)o1 gave an MRT [1] of 48 min, an LCK (A2780 [2]) of 0.4 and an AUC (Mus musculus) of 23 µM·h. The Tmax [3] was 30 min, the half-life [4] was 66 min and the Cmax [5] was 40 µM. The Cell cycle [6] was 71%, the Cell cycle [7] was 20% and the Cell cycle [8] was 7%. The Cell cycle [9] was 2%, the Cell cycle [10] was 50% and the Cell cycle [11] was 18%. The Cell cycle [12] was 7%, the Cell cycle [13] was 69% and the Cell cycle [14] was 4%. For the same compound, the IC50 [15] was 80 nM, the IC50 [16] was 5 nM and the IC50 [17] was 1090 nM. The IC50 (HS27) was 860 nM, the Activity (Homo sapiens) was 82% and the IC50 (MLF) was 1860 nM. For the same compound, the T/C (P388) was 115%, the IC50 (M109) was 2100 nM and the IC50 (A2780 [18]) was 240 nM. It also gave a Cell cycle [19] of 25%.

Compound CCOC(=O)CSc1cnc(NC(C)=O)s1 has an IC50 [15] of 1870 nM, an IC50 [16] of 170 nM and an IC50 [17] of 23000 nM. The IC50 (Protein kinase C (PKC)) was > 50000 nM and the IC50 [20] was > 50000 nM.
